The source of these data is patent publication US4668705A, “Sebosuppressive preparations containing alkoxyaryl alkanols” (Henkel Kommanditgesellschaft auf Aktien, priority 1983, dated 1987).

Series [1] concerns brown skin surface lipid of the rats. Briefly: Antiseborrheic effect in animal test: browning of the shaved back of rats (skin surface lipid), visual assessment under double blind conditions. Also noted: key to Evaluation method 2 (points difference between righthand and lefthand side) / Evaluation method 3 (difference in intensity of brown shades vs untreated control animals): ++: very large (≥99.9% probability); +: significant (≥95% probability); 0: minimal (95% probability). The settings on record: for reduction of sebum (threshold statement in text): at the concentration tested in the Table. The format is in vivo, male Wistar rats. An excerpt:
The antiseborrheic effect was closely studied using the animal tests described in the following: The test animals were male Wistar rats having a body weight of 220 to 230 g at the beginning of the tests. The degree of browning on the shaved back of the rats was visually assessed. Browning is produced by the brown skin surface lipid of the rats. This test is based on the observation that young male and female rats washed with surfactant solution or with a lipid solvent and also male rats systematically treated with oestrogen only have the normal light, pink-colored skin after shaving. At the same time, only comparatively very small quantities of lipids can be extracted from the shaved hairs. In order to assess effectiveness, the test substances in solution in alcohol were each brushed onto half the back of 6 rats. The other half was only treated with the solvent minus active substances. Over the test period of 14 days, the test substances were applied once daily for a total of 9 days. A group of 6 rats which remained completely untreated was used for further control. At the end of the test, the animals were shaved on their back and sides and were visually assessed independently by an examination panel of 6 people under double blind conditions. The first criterion evaluated was whether the majority of examiners correctly recognized the treated side, differentiation being carried out as follows: The second criterion evaluated was the difference between the righthand side and the lefthand side, each examiner having to award 1 point per animal on the following basis: darker side--1 point lighter side--0 point and both sides the same--0.5 point Significant differences between the untreated and treated sides in the second method of evaluation indicate the local effectiveness of a substance. The third criterion evaluated was the difference in intensity between the shades of brown using the following scale: 3 points--dark brown 2 points--medium brown 1 point--light brown 0 points--no browning In the third method of evaluation, total point differences are compared between the untreated control animals and the treated and untreated sides of the test animals, significant differences between the control animals and the treated side of the test animals again indicating the effectiveness of a substance. There is generally also a distinct difference between the untreated and treated sides of the same test animals. However, this difference is not always as clear as that between the control animals and the treated sides, for which there may be various reasons, such as mechanical transfer of substance from one side to the other or solvent influence. The following scheme was used for differentiating the effects according to evaluation methods 2 and 3: The sebum reduction is calculated from the points difference by working out the quotient between the points difference ΔP and the number of points for the control group Pk, and expressing the value obtained in percent. Sebum reduction=(ΔP/Pk ·100 [%] […]

The next series relates to seborrhea of the scalp. The settings on record: prior art, cited from earlier work; for antiseborrheic effect of known additives: additives to cosmetic preparations.
Where [2] appears, read: Conc. 0.5%, topical, once daily, 9 applications in 14 days.
Setting [3] is: Rattus norvegicus, 336 h, Conc. 0.5%, topical, once daily, 9 applications in 14 days, ΔP/Pk × 100, read-out: Sebum reduction.
The mark [4] stands for this setting: Conc. 0.2%, topical, once daily, 9 applications in 14 days.
Where [5] appears, read: Rattus norvegicus, 336 h, Conc. 0.2%, topical, once daily, 9 applications in 14 days, ΔP/Pk × 100, read-out: Sebum reduction.
[6] abbreviates: Conc. 1.0%, topical, once daily, 9 applications in 14 days.
[7] abbreviates: Rattus norvegicus, 336 h, Conc. 1.0%, topical, once daily, 9 applications in 14 days, ΔP/Pk × 100, read-out: Sebum reduction.
[8] abbreviates: Conc. 0.1%, topical, once daily, 9 applications in 14 days.

For the compound `CCCCCCCCCCCCOc1cccc(CO)c1` [H, 3-dodecyloxybenzyl alcohol], in series [1] (setting [2]), the “Evaluation method 1 (percentage of examiners noticing an effect, treated side recognized)” value is given as “++ (100%)”; the “Evaluation method 2 (points difference between righthand and lefthand side)” value is given as “++ (very large (≥99.9% probability))”; the “Evaluation method 3 (difference in intensity of brown shades vs untreated control animals)” value is reported as “++ (very large (≥99.9% probability))”. Also, in series [1] (setting [3]), the inhibition in vivo at 0.5 % was 69%. For the same compound, the “reduction of sebum (threshold statement in text)” value (from here on “reduction of sebum”) in series [1] is recorded as “at least 50%”.

Consider `CCCCCCOc1ccc(CO)cc1` [E, 4-hexyloxybenzyl alcohol], for which, in series [1] (setting [4]), the “Evaluation method 1 (percentage of examiners noticing an effect, treated side recognized)” value is “++ (100%)”; the “Evaluation method 2 (points difference between righthand and lefthand side)” value is listed as “++ (very large (≥99.9% probability))”; the “Evaluation method 3 (difference in intensity of brown shades vs untreated control animals)” value is on record as “++ (very large (≥99.9% probability))”. In addition, in series [1] (setting [5]), the inhibition in vivo at 0.2 % is 92%.

With “3,7,11-trimethyl-2,6,10-dodecatrien-1-ol ethyl ether and/or acetate”, the “antiseborrheic effect of known additives” value in the series on seborrhea of the scalp is listed as “only a very weak antiseborrheic effect”.

Turning to `CCCCCCCCCCOc1ccc(CO)cc1` [B, 4-decyloxybenzyl alcohol], in series [1] (setting [4]), the “Evaluation method 1 (percentage of examiners noticing an effect, treated side recognized)” value is given as “++ (100%)”; the “Evaluation method 2 (points difference between righthand and lefthand side)” value is listed as “++ (very large (≥99.9% probability))”; the “Evaluation method 3 (difference in intensity of brown shades vs untreated control animals)” value is listed as “++ (very large (≥99.9% probability))”. In addition, the inhibition in vivo at 0.2 % in series [1] (setting [5]) amounted to 95%.

As to `CCCCCCCCCCOc1ccc(CCO)cc1` [C, 2-(4-decyloxyphenyl)-ethanol], in series [1] (setting [6]), the “Evaluation method 1 (percentage of examiners noticing an effect, treated side recognized)” value is given as “++ (100%)”; the “Evaluation method 2 (points difference between righthand and lefthand side)” value is reported as “++ (very large (≥99.9% probability))”; the “Evaluation method 3 (difference in intensity of brown shades vs untreated control animals)” value is reported as “++ (very large (≥99.9% probability))”. In addition, in series [1] (setting [7]), the inhibition in vivo at 1 % was 56%. Moreover, the “reduction of sebum” value in series [1] was “at least 50%”.

Regarding `CCCCCCCCCCOc1ccccc1CO` [G, 2-decyloxybenzyl alcohol], in series [1] (setting [2]), the “Evaluation method 1 (percentage of examiners noticing an effect, treated side recognized)” value is “++ (100%)”; the “Evaluation method 2 (points difference between righthand and lefthand side)” value is listed as “++ (very large (≥99.9% probability))”; the “Evaluation method 3 (difference in intensity of brown shades vs untreated control animals)” value is listed as “++ (very large (≥99.9% probability))”. In series [1] (setting [3]), the inhibition in vivo at 0.5 % came to 20%.

On to `CCCCCCCCCCCCCCOc1ccc(CO)cc1` [A, 4-tetradecyloxybenzyl alcohol], for which, in series [1] (setting [2]), the “Evaluation method 1 (percentage of examiners noticing an effect, treated side recognized)” value is “++ (100%)”; the “Evaluation method 2 (points difference between righthand and lefthand side)” value is on record as “++ (very large (≥99.9% probability))”; the “Evaluation method 3 (difference in intensity of brown shades vs untreated control animals)” value is given as “++ (very large (≥99.9% probability))”. In series [1] (setting [3]), the inhibition in vivo at 0.5 % was 97%.

With `CCCCCCCCCCOc1cccc(CO)c1` [K, 3-decyloxybenzyl alcohol], in series [1] (setting [2]), the “Evaluation method 1 (percentage of examiners noticing an effect, treated side recognized)” value is “++ (100%)”; the “Evaluation method 2 (points difference between righthand and lefthand side)” value is “++ (very large (≥99.9% probability))”; the “Evaluation method 3 (difference in intensity of brown shades vs untreated control animals)” value is given as “++ (very large (≥99.9% probability))”. Moreover, the inhibition in vivo at 0.5 % in series [1] (setting [3]) amounted to 53%. For the same compound, the “reduction of sebum” value in series [1] was “at least 50%”.

Consider mercury, for which the “antiseborrheic effect of known additives” value in the series with seborrhea of the scalp was “without giving really satisfactory results in regard to efficacy”.

Regarding `OCc1ccccc1` [Benzyl alcohol, reference compound], in series [1] (setting [6]), the “Evaluation method 1 (percentage of examiners noticing an effect, treated side recognized)” value is 0 (≤50%); the “Evaluation method 2 (points difference between righthand and lefthand side)” value was found to be 0; the “Evaluation method 3 (difference in intensity of brown shades vs untreated control animals)” value was found to be 0. Further, the inhibition in vivo at 1 % in series [1] (setting [7]) was determined as 0%.

For the compound `CCCCCCCCCCCCOc1ccc(CO)cc1` [D, 4-dodecyloxybenzyl alcohol], in series [1] (setting [8]), the “Evaluation method 1 (percentage of examiners noticing an effect, treated side recognized)” value is listed as “++ (100%)”; the “Evaluation method 2 (points difference between righthand and lefthand side)” value is “++ (very large (≥99.9% probability))”; the “Evaluation method 3 (difference in intensity of brown shades vs untreated control animals)” value was “++ (very large (≥99.9% probability))”. Also, the inhibition in vivo at 0.1 % in series [1] (Rattus norvegicus, 336 h, Conc. 0.1%, topical, once daily, 9 applications in 14 days, ΔP/Pk × 100, read-out: Sebum reduction) was found to be 88%.

Regarding `CCCCCCCCOc1ccc(CO)cc1` [F, 4-octyloxybenzyl alcohol], in series [1] (setting [4]), the “Evaluation method 1 (percentage of examiners noticing an effect, treated side recognized)” value is “++ (100%)”; the “Evaluation method 2 (points difference between righthand and lefthand side)” value is “++ (very large (≥99.9% probability))”; the “Evaluation method 3 (difference in intensity of brown shades vs untreated control animals)” value is listed as “++ (very large (≥99.9% probability))”. In addition, in series [1] (setting [5]), the inhibition in vivo at 0.2 % is 95%.

On to `S1SSSSSSS1` [sulfur], for which, in the series on seborrhea of the scalp, the “antiseborrheic effect of known additives” value is “without giving really satisfactory results in regard to efficacy”. Also, the “side effects of known additives” value in the series on seborrhea of the scalp (after prolonged use) was “frequently produce side effects after prolonged use”.

`CCCCCCCCCCCCCCOc1cccc(CO)c1` [I, 3-tetradecyloxybenzyl alcohol]: in series [1] (setting [2]), the “Evaluation method 1 (percentage of examiners noticing an effect, treated side recognized)” value is “++ (100%)”; the “Evaluation method 2 (points difference between righthand and lefthand side)” value is given as “++ (very large (≥99.9% probability))”; the “Evaluation method 3 (difference in intensity of brown shades vs untreated control animals)” value is “++ (very large (≥99.9% probability))”. The inhibition in vivo at 0.5 % in series [1] (setting [3]) worked out at 22%.
